≈ marks a conversion by molar mass, not a printed value.
Key:
Format in all cases: functional
Vibrio anguillarum [1] = test: Antimicrobial activity against Vibrio anguillarum serotype O2b 04/09/494-5106 isolate containing parC position 83 Ser-Ile substitution mutation from Atlantic cod after 5 days by microplate broth dilution method; details: 120 h
Vibrio anguillarum [2] = test: Antimicrobial activity against Vibrio anguillarum serotype O2b 04/09/367-5043 isolate containing gyrA position 83 Ser-Ile substitution mutation from Atlantic cod after 5 days by microplate broth dilution method; details: 120 h
Vibrio anguillarum [3] = test: Antimicrobial activity against Vibrio anguillarum serotype O2b 04/09/367-5042 isolate containing gyrA and parC quinolone resistance mutations from Atlantic cod after 5 days by microplate broth dilution method; details: 120 h
Vibrio anguillarum [4] = test: Antimicrobial activity against Vibrio anguillarum serotype O2b 04/09/363-5036 isolate containing gyrA and parC quinolone resistance mutations from Atlantic cod after 5 days by microplate broth dilution method; details: 120 h
Vibrio anguillarum [5] = test: Antimicrobial activity against Vibrio anguillarum serotype O2b 04/09/422-5063 isolate containing gyrA and parC quinolone resistance mutations from Atlantic cod after 5 days by microplate broth dilution method; details: 120 h
Vibrio anguillarum [6] = test: Antimicrobial activity against Vibrio anguillarum serotype O2b 04/09/363-5034 isolate containing gyrA and parC quinolone resistance mutations from Atlantic cod after 5 days by microplate broth dilution method; details: 120 h
Vibrio anguillarum [7] = test: Antimicrobial activity against Vibrio anguillarum serotype O2b 04/09/363-5034 isolate containing gyrA and parC quinolone resistance mutations from Atlantic cod at 30 ug by disc diffusion assay; details: read-out: IZ
Vibrio anguillarum [8] = test: Antimicrobial activity against Vibrio anguillarum serotype O2b 04/09/363-5036 isolate containing gyrA and parC quinolone resistance mutations from Atlantic cod at 30 ug by disc diffusion assay; details: read-out: IZ
Vibrio anguillarum [9] = test: Antimicrobial activity against Vibrio anguillarum serotype O2b 04/09/367-5042 isolate containing gyrA and parC quinolone resistance mutations from Atlantic cod at 30 ug by disc diffusion assay; details: read-out: IZ
Vibrio anguillarum [10] = test: Antimicrobial activity against Vibrio anguillarum serotype O2b 04/09/494-5106 isolate containing parC position 83 Ser-Ile substitution mutation from Atlantic cod at 30 ug by disc diffusion assay; details: read-out: IZ
Vibrio anguillarum [11] = test: Antimicrobial activity against Vibrio anguillarum BAF33487 containing parC position 90 Glu-Gly substitution mutation
Vibrio anguillarum [12] = test: Antimicrobial activity against Vibrio anguillarum serotype O2b 04/09/367-5043 isolate containing gyrA position 83 Ser-Ile substitution mutation from Atlantic cod at 30 ug by disc diffusion assay; details: read-out: IZ
Vibrio anguillarum [13] = test: Antimicrobial activity against Vibrio anguillarum serotype O2b 04/09/422-5063 isolate containing gyrA and parC quinolone resistance mutations from Atlantic cod at 30 ug by disc diffusion assay; details: read-out: IZ

SMILES: CCn1cc(C(=O)O)c(=O)c2ccc(C)nc21 [NALIDIXIC ACID]
- MIC (Vibrio anguillarum [1]): > 128 µg/mL
- MIC (Vibrio anguillarum [2]): 8 µg/mL (≈ 34.4 µM)
- MIC (Vibrio anguillarum [3]): 16 µg/mL (≈ 68.9 µM)
- MIC (Vibrio anguillarum [4]): ≤ 1 µg/mL
- MIC (Vibrio anguillarum [5]): 16 µg/mL (≈ 68.9 µM)
- MIC (Vibrio anguillarum [6]): ≤ 1 µg/mL

SMILES: CCn1cc(C(=O)O)c(=O)c2cc3c(cc21)OCO3 [OXOLINIC ACID]
- zone of inhibition at 30 µg/disc (Vibrio anguillarum [7]): 49 mm
- zone of inhibition at 30 µg/disc (Vibrio anguillarum [8]): 47 mm
- MIC (Vibrio anguillarum [1]): 16 µg/mL (≈ 61.2 µM)
- MIC (Vibrio anguillarum [2]): 0.06 µg/mL (≈ 0.23 µM)
- MIC (Vibrio anguillarum [3]): 0.06 µg/mL (≈ 0.23 µM)
- MIC (Vibrio anguillarum [4]): ≤ 0.0001 µg/mL
- zone of inhibition at 30 µg/disc (Vibrio anguillarum [9]): 27 mm
- zone of inhibition at 30 µg/disc (Vibrio anguillarum [10]): 0 mm
- MIC (Vibrio anguillarum [11]): 6.25 µg/mL (≈ 23.9 µM)
- zone of inhibition at 30 µg/disc (Vibrio anguillarum [12]): 28 mm
- MIC (Vibrio anguillarum [5]): 0.06 µg/mL (≈ 0.23 µM)
- zone of inhibition at 30 µg/disc (Vibrio anguillarum [13]): 30 mm

SMILES: CCN1CCN(c2cc3c(cc2F)c(=O)c(C(=O)O)cn3C2CC2)CC1 [ENROFLOXACIN]
- MIC (Vibrio anguillarum [1]): 1 µg/mL (≈ 2.78 µM)
- MIC (Vibrio anguillarum [2]): 0.25 µg/mL (≈ 0.696 µM)
- MIC (Vibrio anguillarum [3]): 0.25 µg/mL (≈ 0.696 µM)
- MIC (Vibrio anguillarum [4]): ≤ 0.03 µg/mL
- MIC (Vibrio anguillarum [5]): 0.5 µg/mL (≈ 1.39 µM)
- MIC (Vibrio anguillarum [6]): ≤ 0.03 µg/mL

SMILES: CC1CCc2cc(F)cc3c(=O)c(C(=O)O)cn1c23 (stereo not given) [FLUMEQUINE]
- zone of inhibition at 30 µg/disc (Vibrio anguillarum [7]): 54 mm
- zone of inhibition at 30 µg/disc (Vibrio anguillarum [8]): 52 mm
- zone of inhibition at 30 µg/disc (Vibrio anguillarum [9]): 36 mm
- zone of inhibition at 30 µg/disc (Vibrio anguillarum [10]): 17 mm
- zone of inhibition at 30 µg/disc (Vibrio anguillarum [12]): 37 mm
- zone of inhibition at 30 µg/disc (Vibrio anguillarum [13]): 37 mm

Source: ChEMBL document CHEMBL1157372, “gyrA and parC Mutations and associated quinolone resistance in Vibrio anguillarum serotype O2b strains isolated from farmed Atlantic cod (Gadus morhua) in Norway” (2007)
